In US20260334439A1, “BCAT2 INHIBITORS” (Agios Pharmaceuticals, Inc., priority 2023, published 2026):

How the values were obtained:
BCAT2 [1] = biological target: T1, BCAT2 (Homo sapiens, UniProt O15382); assay: BCAT2 in vitro enzyme inhibition assay (hBCAT2, glutamate dehydrogenase/diaphorase/resazurin coupled fluorescence read); assay type: biochemical; details: hBCAT2, 1 h preincubation at 25° C., one hour reaction; average where tested multiple times
T1 sequence (O15382 28-392): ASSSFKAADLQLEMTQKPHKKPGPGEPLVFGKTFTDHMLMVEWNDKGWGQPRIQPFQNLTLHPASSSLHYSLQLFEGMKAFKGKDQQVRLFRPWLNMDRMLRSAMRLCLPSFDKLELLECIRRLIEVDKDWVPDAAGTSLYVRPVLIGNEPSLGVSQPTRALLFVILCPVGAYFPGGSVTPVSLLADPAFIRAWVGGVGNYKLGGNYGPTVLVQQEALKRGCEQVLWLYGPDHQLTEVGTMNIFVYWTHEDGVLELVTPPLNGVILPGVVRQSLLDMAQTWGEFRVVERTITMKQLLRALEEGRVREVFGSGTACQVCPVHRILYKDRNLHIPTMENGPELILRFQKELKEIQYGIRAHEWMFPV
In short: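 Coupled GDH/diaphorase/resazurin fluorescence (Ex 540/Em 590) read after 1 h reaction at 25 °C, SDS-stopped; enzyme (0.33 μg/mL in mix) first preincubated 1 h with compound, 10-point 3-fold series from 100 μM final, Tris pH 8.0 buffer with NaCl, BSA; technical duplicates, averaged across tests.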

BCAT2 [2] = biological target: T1, BCAT2; assay: BCAT2 cell inhibition using engineered A549 cells (MUT KO, BCAT1 KO; 13C6-KMV formation by LC-MS/MS); assay type: cell-based; design: expressed endogenous BCAT2; endogenous in cells; host or cells: A549 cells, MUT knockout and BCAT1 knockout
Source text: Endogenous Methylmalonyl-CoA Mutase (MUT) and Branched Chain Aminotransferase 1 (BCAT1) in A549 cells was knocked out by CRISPR/CAS9 using the targeting system from TransOMIC Technologies. The following guide sequence was cloned into pCLIP-ALL-EFS-Blast vector to target human MUT: […] (SEQ ID NO: 35). The following guide sequence was cloned into pCLIP-ALL-EFS-Puro vector to target human BCAT1: […] (SEQ ID NO: 36). The resulting plasmids were co-transfected into 293T cells with VSV-G, P-PEX, and Fugene-6. Lentivirus was harvested and A549 cells were first transduced with lentivirus targeting MUT and polybrene. After genetic selection with blasticidin clonal selection was performed and validated via western blot analysis to confirm MUT was no longer expressed. These MUT KO cells were then transduced with lentivirus targeting BCAT1 and polybrene. After selection with puromycin clonal selection was performed and clones were validated via western blot analysis to confirm BCAT1 was no longer expressed in these cells. The result was an engineered A549 cell line that expressed endogenous BCAT2.
For KMV cell assays, on day 1, 25,000 cells/100 μL EMEM (10% FBS) were seeded in each well of a 96-well plate. On day 2, medium was replaced with 50 μL fresh EMEM (10% dialyzed FBS) containing 2× the assay concentration of experimental compound. After 15 minutes, 50 μL of 800 uM ^15N,^13C6-Isoleucine in EMEM (10% dialyzed FBS) was added to each well and incubated for 24 hours. On day 3, 50 μL of media from each well was collected and transferred to another 96-well plate for ^13C6-3-Methyl-2-Oxopentanoic Acid (KMV) analysis via LC-MS/MS. In the remaining assay wells 50 μL of Promega Glo CTG reagent was added and luminescence was measured as a cell viability readout.
For LC-MS/MS analysis 5 μL of cell assay media from each well was transferred to a 96-well plate and 45 μL of ACN:0.1% NaOH (50:50, v/v)^+0.20 nM d8-KMV was added and mixed on a shaker. 15 μL was transferred to a new 96-well plate and 15 μL of 10 mg/mL PFBHA solution was added and mixed on the shaker. The reaction was placed on ice for 30 minutes and quenched with 10 μL of ACN: Acetone (50:50, v/v) on a shaker. The resulting mixture was diluted with 100 μL of ACN:0.1% NaOH (50:50, v/v) on a shaker. 10 μL of sample were injected on the Shimadzu 20AD LC-MS/MS to quantify ^13C6-KMV.
Where a compound was tested multiple times, the average value of the tests is reported.

Compound	IC50 (BCAT2 [1]) [nM]	IC50 (BCAT2 [2]) [nM]	IC50 (BCAT2 [2]; read-out: BCAT2 Cell Inhibition (IC50), engineered A549 cells, 24 hours, 13C6-KMV in media, average where tested multiple times) [nM]
O=C(N[C@H]1CCC[C@@H](n2c(-c3ccccc3F)nc3cnc(-c4nc[nH]n4)cc32)C1)c1cc(Cl)ccc1O [Example 53, 5-chloro-N-((1S,3R)-3-(2-(2-fluorophenyl)-6-(1H-1,2,4-triazol-3-yl)-1H-imidazo[4,5-c]pyridin-1-yl)cyclohexyl)-2-hydroxybenzamide]	< 100	< 100	
COCCOc1ccc(Cl)cc1C(=O)N[C@H]1CCC[C@@H](n2c(-c3ccccc3F)nc3cnc(-c4nc[nH]n4)cc32)C1 [Example 54, 5-chloro-N-((1S,3R)-3-(2-(2-fluorophenyl)-6-(1H-1,2,4-triazol-3-yl)-1H-imidazo[4,5-c]pyridin-1-yl)cyclohexyl)-2-(2-methoxyethoxy)benzamide]	< 100	< 100	
CN(C)CCOc1ccc(Cl)cc1C(=O)N[C@H]1CCC[C@@H](n2c(-c3ccccc3F)nc3cnc(-c4nc[nH]n4)cc32)C1 [Example 55, 5-chloro-2-(2-(dimethylamino)ethoxy)-N-((1S,3R)-3-(2-(2-fluorophenyl)-6-(1H-1,2,4-triazol-3-yl)-1H-imidazo[4,5-c]pyridin-1-yl)cyclohexyl)benzamide]	< 100		> 1000
O=C(N[C@H]1CCC[C@@H](n2c(-c3ccccc3F)nc3cnc(-c4nc[nH]n4)cc32)C1)c1cc(Cl)ccc1F [Example 56, 5-chloro-2-fluoro-N-((1S,3R)-3-(2-(2-fluorophenyl)-6-(1H-1,2,4-triazol-3-yl)-1H-imidazo[4,5-c]pyridin-1-yl)cyclohexyl)benzamide]	< 100	< 100	
CC(C)Cc1nc2cnc(-n3nccn3)cc2n1[C@@H]1CCC[C@H](NC(=O)c2cc(Cl)ccc2OCCO)C1 [Example 57, 5-chloro-2-(2-hydroxyethoxy)-N-((1S,3R)-3-(2-isobutyl-6-(2H-1,2,3-triazol-2-yl)-1H-imidazo[4,5-c]pyridin-1-yl)cyclohexyl)benzamide]	< 100	500 to 1000	
O=C(N[C@H]1CCC[C@@H](n2c(-c3ccccc3F)nc3cnc(-c4nc[nH]n4)cc32)C1)c1cc(F)ccc1F [Example 58, 2,5-difluoro-N-((1S,3R)-3-(2-(2-fluorophenyl)-6-(1H-1,2,4-triazol-3-yl)-1H-imidazo[4,5-c]pyridin-1-yl)cyclohexyl)benzamide]	< 100	< 100	
COCCOc1ccc(F)cc1C(=O)N[C@H]1CCC[C@@H](n2c(-c3ccccc3F)nc3cnc(-c4nc[nH]n4)cc32)C1 [Example 59, 5-fluoro-N-((1S,3R)-3-(2-(2-fluorophenyl)-6-(1H-1,2,4-triazol-3-yl)-1H-imidazo[4,5-c]pyridin-1-yl)cyclohexyl)-2-(2-methoxyethoxy)benzamide]	< 100	< 100	
O=C(N[C@H]1CCC[C@@H](n2c(-c3ccccc3F)nc3cnc(-n4nccn4)cc32)C1)c1cc(Cl)ccc1OCCO [Example 68, 5-chloro-N-((1S,3R)-3-(2-(2-fluorophenyl)-6-(2H-1,2,3-triazol-2-yl)-1H-imidazo[4,5-c]pyridin-1-yl)cyclohexyl)-2-(2-hydroxyethoxy)benzamide]	< 100	< 100	
O=C(N[C@H]1CCC[C@@H](n2c(-c3c(O)cccc3F)nc3cnc(-c4nc[nH]n4)cc32)C1)c1cc(Cl)ccn1 [Example 70, 4-chloro-N-((1S,3R)-3-(2-(2-fluoro-6-hydroxyphenyl)-6-(1H-1,2,4-triazol-3-yl)-1H-imidazo[4,5-c]pyridin-1-yl)cyclohexyl)picolinamide]	< 100	< 100	
CC(C)(O)COc1ccc(Cl)cc1C(=O)N[C@H]1CCC[C@@H](n2c(-c3ccccc3F)nc3cnc(-n4nccn4)cc32)C1 [Example 71, 5-chloro-N-((1S,3R)-3-(2-(2-fluorophenyl)-6-(2H-1,2,3-triazol-2-yl)-1H-imidazo[4,5-c]pyridin-1-yl)cyclohexyl)-2-(2-hydroxy-2-methylpropoxy)benzamide]	< 100	< 100	
COCCOc1ccc(Cl)cc1C(=O)N[C@H]1CCC[C@@H](n2c(-c3ccccc3F)nc3cnc(-n4nccn4)cc32)C1 [Example 72, 5-chloro-N-((1S,3R)-3-(2-(2-fluorophenyl)-6-(2H-1,2,3-triazol-2-yl)-1H-imidazo[4,5-c]pyridin-1-yl)cyclohexyl)-2-(2-methoxyethoxy)benzamide]	< 100	< 100	
O=C(N[C@H]1CCC[C@@H](n2c(-c3ccccc3F)nc3cnc(-c4nc[nH]n4)cc32)C1)c1c(F)cccc1F [Example 74, 2,6-difluoro-N-((1S,3R)-3-(2-(2-fluorophenyl)-6-(1H-1,2,4-triazol-3-yl)-1H-imidazo[4,5-c]pyridin-1-yl)cyclohexyl)benzamide]	< 100	100 to 500	
O=C(N[C@H]1CCC[C@@H](n2c(-c3ccccc3F)nc3cnc(-c4nc[nH]n4)cc32)C1)c1ccccc1F [Example 76, 2-fluoro-N-((1S,3R)-3-(2-(2-fluorophenyl)-6-(1H-1,2,4-triazol-3-yl)-1H-imidazo[4,5-c]pyridin-1-yl)cyclohexyl)benzamide]	< 100	< 100	
N#Cc1ccc(F)c(C(=O)N[C@H]2CCC[C@@H](n3c(-c4ccccc4F)nc4cnc(-c5nc[nH]n5)cc43)C2)c1 [Example 77, 5-cyano-2-fluoro-N-((1S,3R)-3-(2-(2-fluorophenyl)-6-(1H-1,2,4-triazol-3-yl)-1H-imidazo[4,5-c]pyridin-1-yl)cyclohexyl)benzamide]	< 100	100 to 500	
CC(C)Cc1nc2cnc(-c3nc[nH]n3)cc2n1[C@@H]1CCC[C@H](NC(=O)c2cc(Cl)ccc2OCCO)C1 [Example 78, 5-chloro-2-(2-hydroxyethoxy)-N-((1S,3R)-3-(2-isobutyl-6-(1H-1,2,4-triazol-3-yl)-1H-imidazo[4,5-c]pyridin-1-yl)cyclohexyl)benzamide]	< 100	100 to 500	
O=C(N[C@H]1CCC[C@@H](n2c(-c3ncccc3F)nc3cnc(-c4nc[nH]n4)cc32)C1)c1cc(F)ccc1F [Example 80, 2,5-difluoro-N-((1S,3R)-3-(2-(3-fluoropyridin-2-yl)-6-(1H-1,2,4-triazol-3-yl)-1H-imidazo[4,5-c]pyridin-1-yl)cyclohexyl)benzamide]	< 100	100 to 500	
N#Cc1ccccc1-c1nc2cnc(-c3nc[nH]n3)cc2n1[C@@H]1CCC[C@H](NC(=O)c2cc(F)ccc2F)C1 [Example 81, N-((1S,3R)-3-(2-(2-cyanophenyl)-6-(1H-1,2,4-triazol-3-yl)-1H-imidazo[4,5-c]pyridin-1-yl)cyclohexyl)-2,5-difluorobenzamide]	< 100	100 to 500	
O=C(N[C@H]1CCC[C@@H](n2c(-c3ccccc3F)nc3cnc(-c4nc[nH]n4)cc32)C1)c1cc(Cl)ccc1OCCCO [Example 82, 5-chloro-N-((1S,3R)-3-(2-(2-fluorophenyl)-6-(1H-1,2,4-triazol-3-yl)-1H-imidazo[4,5-c]pyridin-1-yl)cyclohexyl)-2-(3-hydroxypropoxy)benzamide]	< 100	< 100	
